Source: patent publication US20100261711A1, “SELECTIVE ANTICONVULSANT AGENTS AND THEIR USES” (WiSys Technology Foundation, priority 2009, published 2010)
Where “and” joins values, the source holds several entries; their conditions need not be identical. Equal values may be shown once. Entries after “also recorded” stand apart in the source; their conditions may differ.

Columns and labels:
[1] = system: Pilocarpine-induced Status; assay: Pilocarpine-induced status; format: in vivo, rats; conditions: for Pilocarpine-induced Status, Time to Peak Effect, ratio of animals: Time 0 Hrs
[2] = system: Metrazol-induced clonic seizures; assay: Tolerance study, 5 day dosing, scMet; format: in vivo, Sprague Dawley rats
Experimental: The dose utilized was the predetermined ED50 against the scMet seizure model. In this model a subcutaneous injection of the convulsant Metrazol is used to produce highly reproducible clonic seizures in laboratory animals. […] Animals are pretreated with various doses of the test compound. At the time of peak effect (TPE) of the test compound, a dose of Metrazol that induce convulsions in 97% of animals (CD97: 85 mg/kg mice) is injected into a loose fold of skin in the midline of the neck. The animals are placed in isolation cages to minimize stress (Swinyard et al., 1961) and observed for the next 30 minutes for the presence or absence of a seizure. An episode of clonic spasms, approximately 3-5 seconds, of the fore and/or hindlimbs, jaws, or vibrissae is taken as the endpoint.
In this study, Sprague Dawley rats were used (average weight 150 gm). […] Finally, Group 3 was the solvent control group. These animals were administered the test solvent (methylcellulose 0.5%) as a control. Here methylcellulose was administered i.p. for all 5 days.
On day 5, all animals from each group were tested in the scMet model using the previously determined time of peak effect (TPE) of 15 minutes. Immediately after testing, blood was collected via cardiac puncture. Samples were spun down, plasma was collected and acetonitrile added. Samples were frozen at −80° C. and shipped to a commercial laboratory (Enthalpy) for analysis.

[3] = Plasma levels by LC-MS/MS (tolerance study); format: in vivo, Sprague Dawley rats; conditions: for Conc HZ-166 in plasma, individual subjects: 35.5 mg/kg
Experimental: Immediately after testing, blood was collected via cardiac puncture. Samples were spun down, plasma was collected and acetonitrile added. Samples were frozen at −80° C. and shipped to a commercial laboratory (Enthalpy) for analysis.
Group 3 (8 subjects) was dosed with vehicle only.

C#Cc1ccc2c(c1)C(c1ccccc1)=N[C@H](C)c1nnc(C)n1-2 [SH-TR-CH3 (146), (4R)-8-Ethynyl-1,4-dimethyl-6-phenyl-4H-benzo[f][1,2,4]triazolo[4,3-a][1,4]diazepine]
Pilocarpine-induced Status, Time to Peak Effect, ratio of animals ([1]; Rats, 100 mg/kg, 0.25 Hr): 0/2
Pilocarpine-induced Status, Time to Peak Effect, ratio of animals ([1]; Rats, 100 mg/kg, 0.5 Hr): 0/2
Pilocarpine-induced Status, Time to Peak Effect, ratio of animals ([1]; Rats, 100 mg/kg, 1.0 Hr): 0/2
Pilocarpine-induced Status, Time to Peak Effect, ratio of animals ([1]; Rats, 100 mg/kg, 2.0 Hr): 0/2
Pilocarpine-induced Status, Time to Peak Effect, ratio of animals ([1]; Rats, 100 mg/kg, 4.0 Hr): 0/2
Pilocarpine-induced Status, Time to Peak Effect, ratio of animals ([1]; Rats, 300 mg/kg, 0.25 Hr): 0/2
Pilocarpine-induced Status, Time to Peak Effect, ratio of animals ([1]; Rats, 300 mg/kg, 0.5 Hr): 0/2
Pilocarpine-induced Status, Time to Peak Effect, ratio of animals ([1]; Rats, 300 mg/kg, 1.0 Hr): 0/2
Pilocarpine-induced Status, Time to Peak Effect, ratio of animals ([1]; Rats, 300 mg/kg, 2.0 Hr): 0/2
Pilocarpine-induced Status, Time to Peak Effect, ratio of animals ([1]; Rats, 300 mg/kg, 4.0 Hr): 0/2
Pilocarpine-induced Status, Time to Peak Effect, ratio of animals ([1]; Rats, 500 mg/kg, 0.25 Hr, Ataxia noted): 0/2^12
Pilocarpine-induced Status, Time to Peak Effect, ratio of animals ([1]; Rats, 500 mg/kg, 0.5 Hr, Ataxia noted): 0/2^12
Pilocarpine-induced Status, Time to Peak Effect, ratio of animals ([1]; Rats, 500 mg/kg, 1.0 Hr, Ataxia noted): 0/2^12
Pilocarpine-induced Status, Time to Peak Effect, ratio of animals ([1]; Rats, 500 mg/kg, 2.0 Hr, Ataxia noted): 0/2^12
Pilocarpine-induced Status, Time to Peak Effect, ratio of animals ([1]; Rats, 500 mg/kg, 4.0 Hr): 0/2
Pilocarpine-induced Status, ratio of animals ([1]; Rats, 600 mg/kg, 0 Hrs post first Stage III seizure): 4/7
Pilocarpine-induced Status, ratio of animals ([1]; Rats, 1,000 mg/kg, 0.5 Hrs post first Stage III seizure, footnote c: death): 1/7^c

C#Cc1ccc2c(c1)C(c1ccccn1)=NCc1c(C(=O)OCC)ncn1-2 [Hz166 (106), 8-Acetylenyl-6-pyridin-2-yl-4H-benzo[f]imidazo[1,5-a][1,4]diazepine-3-carboxylic acid ethyl ester]
protection against scMet induced seizures ([2]; Group 1 chronic dosing, day 5): approximately 40%
scMet, animals protected/tested ([2]; Group 1 chronic dosing: 35.5 mg/kg ip once daily 5 days, tested day 5 at TPE 15 min, 35.5 mg/kg): 3/8 and 3/8 protected (chronic dosing)
scMet, animals protected/tested ([2]; Group 2 acute dosing: single 35.5 mg/kg ip dose on day 5, TPE 15 min, 35.5 mg/kg): 1/8 and 1/8 (acute dosing)
scMet, animals protected/tested ([2]; original preliminary study (different rats), acutely treated group): 5/8
scMet, animals protected/tested ([2]; original preliminary study (different rats), chronically treated group): 5/8
tolerance to the anticonvulsant effects ([2]; rats, dosed 5 days at the calculated scMet ED50): didn't develop tolerance; also recorded: did not develop tolerance
HZ-166, plasma average with outliers excluded ([3]; Group 1 (five days dosing)): 0.334 nmol/mL
Conc HZ-166 in plasma, individual subjects ([3]; Group 1: HZ-166 35.5 mg/kg ip for five days, blood after test on day 5): 94.3 ng/mL and 85.4 ng/mL and 168 ng/mL and 138 ng/mL and BLQ < (1.00) ng/mL and 118 ng/mL and 198 ng/mL and 30.5 ng/mL
HZ-166, plasma average with outliers excluded ([3]; Group 2 (day 5 only)): 0.533 nmol/mL
Conc HZ-166 in plasma, individual subjects ([3]; Group 2: HZ-166 35.5 mg/kg ip on day 5 only): 202 ng/mL and 165 ng/mL and 8.67 ng/mL and 273 ng/mL and 210 ng/mL and 93.3 ng/mL and 176 ng/mL
